Test system: THP-1 viability, CellTiter-Glo luminescence, 72 h
Experiment: THP-1 cell cytotoxicity, dose response, cytotoxicity control for Salmonella PhoP regulon inhibitors, S. typhimurium screen hits (AID 2253)

Row | SMILES | EC50 [µM]
1 | CCOc1ccc(CSC(=N)N)cc1[N+](=O)[O-] | 20.4
2 | c1ccc(Nc2cc(Nc3ccccc3)[nH]n2)cc1 | 23.7
3 | Cc1cc(C(=O)NNC(=S)NC(=O)/C=C/c2ccccc2Cl)n[nH]1 | 23.6
4 | COc1cccc(/C=N\NC(=O)Cn2nnc3ccccc32)c1O | 10.9
5 | c1ccc2c(NC3=NCCS3)cccc2c1 | 31.8
6 | O=[N+]([O-])c1cc(CN2CCCC2)c2cccnc2c1O | 41.2
7 | Clc1ccc(OCCN2CCN(c3ncnc4sccc34)CC2)cc1 | < 0.1
8 | O=C(CN1CC(c2ccccc2)CC1=O)N/N=C/c1cc(Br)ccc1O (stereo unspecified) | 3.74
9 | O=C1c2cccc(OCC(=O)N3N=C(c4cccs4)CC3c3ccc(F)cc3)c2CCN1Cc1cccnc1 (stereo unspecified) | 47.9
10 | Oc1ccc(Cl)cc1Cc1cc(Cl)ccc1O | 19.6
11 | CO[C@H]1C=CO[C@@]2(C)Oc3c(C)c(O)c4c(O)c(c(C=NN5CCN(C)CC5)c(O)c4c3C2=O)NC(=O)C(C)=CC=C[C@H](C)[C@H](O)[C@@H](C)[C@@H](O)[C@@H](C)[C@H](OC(C)=O)[C@@H]1C | 33
12 | Cc1ccc2c(c1)[nH]c1c(N3CCN(Cc4ccccc4)CC3)ncnc12 | 18.9
13 | COc1ccc(C(=O)N2CCc3cc(OC)c(OC)cc3C2)cc1OC | 36.7
14 | COc1cc([N+](=O)[O-])cc(/C=N\NC(=O)C2COc3ccccc3O2)c1O (stereo unspecified) | 19.6
15 | CCCCCCCCCCCCCCCC[n+]1ccc(/C=N/O)cc1 | 0.37
16 | NC1=NC[C@H](Cc2ccccc2)N1CCCCC1CCCCC1 | 3.71
17 | CC(=O)NC(c1ccc(C)cc1)c1cc([N+](=O)[O-])c2cccnc2c1O (stereo unspecified) | 6.41
18 | Cc1cc(/C=N/n2c(COc3ccccc3)nc3ccccc3c2=O)c(O)c([N+](=O)[O-])c1 | 4.71
19 | Clc1ccc(OCCn2ccnc2)c2ccccc12 | 43.5
20 | O=C(Cc1n[nH]c(=O)c2ccccc12)OCC(=O)c1ccc2c(c1)OCCO2 | 1.34
21 | Nc1nc2ccccc2n1Cc1ccc(Cl)c(Cl)c1 | 24.4
22 | C=CCc1ccccc1OCC(O)CN1CCN(CCN2C(=O)c3cccc4cccc(c34)C2=O)CC1 (stereo unspecified) | 16.8
23 | COc1ccc(Nc2cc(C)nc(NCc3ccccc3)n2)cc1 | 10.1
24 | COc1ccc(-c2c/c(=N\c3nc(-c4ccccc4)c(C)s3)c3ccccc3o2)cc1O | 2.36

Row | SMILES | EC50 [µM]
25 | O=c1[nH]cc(F)c(=O)[nH]1 | 4.25
26 | O=C(CSc1nc2ccccc2s1)N/N=C/c1cc([N+](=O)[O-])ccc1O | 26.4
27 | CN1CCN(C(c2ccc(C(F)(F)F)cc2)c2cc(Cl)c3cccnc3c2O)CC1 (stereo unspecified) | 2.96
28 | CCCCOc1ccc(Br)cc1CSC(=N)N | 5.78
29 | CCCCCCCSc1cc(OC)c(CCNC)cc1OC | 6.34
30 | O=C1c2[nH]nc(-c3ccccc3O)c2C(c2ccc(F)cc2)N1Cc1ccco1 (stereo unspecified) | 20
31 | NC1=NC[C@H](Cc2ccc(O)cc2)N1CCCCC1CCCCC1 | 2.63
32 | Cc1ccccc1OCCCCCn1ccnc1 | 24.4
33 | Cc1scc(C(=O)N/N=C/c2ccc([N+](=O)[O-])o2)c1C | 19.9
34 | Cc1ccc(C)c(-c2nc3ccc(N)cc3[nH]2)c1 | 10.5
35 | Cc1ccc(-c2csc(N=C(N)N)n2)c(C)c1 | 23.5
36 | O=S(=O)(Nc1cc(Sc2cccc3cccnc23)c(O)c2ccccc12)c1ccc(F)cc1 | 2.82
37 | N=c1n(Cc2ccccc2)c2ccccc2n1CC(O)COc1ccc(Cl)cc1Cl (stereo unspecified) | 2.91
38 | Oc1c(C(Nc2cccc(C(F)(F)F)c2)c2cccnc2)ccc2cccnc12 (stereo unspecified) | 7.65
39 | CC(C)C(=O)NC(c1cccc([N+](=O)[O-])c1)c1ccc2cccnc2c1O (stereo unspecified) | 0.51
40 | COc1ccc2ccccc2c1/C=N/NC(=O)c1sc(N)c(C#N)c1C | 30.1
41 | C/C(=C\C(=O)c1cccnc1)Nc1ccc(O)cc1 | 47.6
42 | COc1ccc(NS(=O)(=O)c2cc(C)ccc2NC(=O)c2cc(C)oc2C)cc1 | 0.26
43 | O=C(O)C1Nc2c(O)cccc2C2C=CCC12 (stereo unspecified) | 22.6
44 | CC[n+]1c(/C=C/C=C/c2ccc(N(C)C)cc2)sc2ccccc21 | 1.5
45 | COc1ccc(Nc2nc(-c3c[nH]c4ccccc34)cs2)cc1 | 15.6
46 | Cc1sc2ncnc(N/N=C/c3ccccc3O)c2c1C | 0.51
47 | CCOc1ccc(-n2c(SCc3nc(-c4ccc(C)cc4)no3)nnc2-c2ccncc2)cc1 | 28.3
48 | Cc1cc(C)cc(CC(Cc2nc3ccccc3[nH]2)c2nc3ccccc3[nH]2)c1 (stereo unspecified) | 11.8

Row | SMILES | EC50 [µM]
49 | O=C1C2=C(NC(=S)NC2c2ccc(Cl)cc2)NC(c2ccc(Cl)cc2)N1c1ccc(Cl)cc1 (stereo unspecified) | 11.3
50 | O=C(NCCN1CCOCC1)c1ccc2ccccc2c1 | < 0.1
51 | CC(=O)Oc1cc2cccc(OC(C)=O)c(=O)c2c(OC(C)=O)c1OC(C)=O | 14.6
52 | O=C1C(=O)c2ccccc2-c2ccccc21 | 8.03
53 | COc1ccc(O)c(/C=c2/sc3nc4cc(C)c(C)cc4n3c2=O)c1 | 34.1
54 | COC(=O)c1cc(C)nc2c1C(=O)C(=O)C=C2N1CCOCC1 | 2.97
55 | O=C(Nc1ccc2snnc2c1)Nc1cccc2ccccc12 | 33.7
56 | Fc1ccc(Nc2nc(NCc3ccco3)c3ccccc3n2)cc1 | 6.54
57 | CCN(CC)c1ccc(S(=O)(=O)Nc2cc(Cl)ccc2Cl)cc1NC(=S)NC(=O)C1CCCC1 | 40
58 | NC(=NCCc1c[nH]c2ccccc12)NC(=O)c1ccc(F)cc1 | 36.4
59 | CC(NCc1ccc(Cl)c(Cl)c1)C(O)c1ccccc1 (stereo unspecified) | 40
60 | O=C(Nc1ccc(Br)cc1)c1ccc(F)c(S(=O)(=O)NCc2cccs2)c1 | 21.7
61 | COc1ccc(C(=O)On2c(-c3ccc(Br)cc3)nc3ccccc3c2=O)cc1 | 12.8
62 | C1CCC(C(CC2CCCCN2)C2CCCCC2)CC1 (stereo unspecified) | 5.45
63 | O=C(Oc1c(Cl)cc(Cl)c2cccnc12)c1ccco1 | 11.5
64 | Cc1ccc(Nc2c3c(nc4ccccc24)CCC3)cc1 | 12.2
65 | COc1ccc(C(C[N+](=O)[O-])n2nc(C)cc2C)cc1 (stereo unspecified) | 10.1
66 | COc1cccc(C(=O)Oc2c(CN3CCOCC3)cc(Cl)c3cccnc23)c1 | 7.11
67 | CCCNC1=C(C)C(=O)C2=C(C1=O)C(COC(N)=O)[C@]1(OC)C3NC3CN21 (stereo partly specified) | 10.1
68 | COc1ccc(C)cc1C(=O)CCC(=O)Nc1ccccc1N1CCOCC1 | 8.33
69 | C/C(=N/Nc1nc(-c2ccccc2)cc(-c2ccc(F)cc2)n1)c1cccc(N)c1 | 18.1
70 | CCCCOc1ccc(Cc2cnc(N)nc2N)cc1 | 41.5
71 | CCn1c(C)cc(=S)c2ccccc21 | 48.2
72 | Cc1ccc(SC(c2ccc(C)cc2)C(Cn2cncn2)C(=O)c2ccccc2)cc1 (stereo unspecified) | 49.8

Row | SMILES | EC50 [µM]
73 | Cc1cc(NC(c2cccnc2)c2ccc3cccnc3c2O)no1 (stereo unspecified) | 1.79
74 | COc1cccc2[nH]c3c(N4CCN(Cc5ccc6c(c5)OCO6)CC4)ncnc3c12 | 47.9
75 | CCCCCCCCCCOC(=O)Cn1c(COc2ccccc2)[n+](C)c2ccccc21 | 8.34
76 | Clc1ccc(Nc2ncnc3c2cnn3-c2ccccc2)cc1 | 30.1
77 | Cc1[nH]c2ccccc2c1C(O)CN1CCN(c2cccc(C(F)(F)F)c2)CC1 (stereo unspecified) | 9.39
78 | CCN(CC(=O)NC(C)(C)C)C(=O)COc1c(Cl)cc(Cl)c2ccc(C)nc12 | 37.3
79 | O=c1[nH]c(NCc2ccco2)nnc1Cc1ccccc1Cl | 6.65
80 | Cc1[nH]n(-c2ncc(-c3ccc(Cl)cc3)s2)c(=O)c1C(c1ccc(Cl)cc1)C(C#N)C#N (stereo unspecified) | 45
81 | CCN(CC)c1ccc(/C=N/NC(=S)NCc2ccccc2)c(O)c1 | 7.54
82 | Cc1ccc2cccnc2c1NC(=S)NC(=O)c1ccccc1 | 25.2
83 | CN(C)S(=O)(=O)c1cccc(NC(=S)N/N=C/c2cc(Br)ccc2O)c1 | 0.65
84 | CCOc1ccc2c(c1)nc(SCC(=O)c1ccc(Br)s1)n2C | 47.3
85 | O=C(Nc1cccc(Cl)c1)Nc1ccc2c(c1)OCO2 | 36.8
86 | S=C(Nc1ccccc1)Nc1nc2ccccc2n1CCOc1ccc(Cl)cc1 | 15
87 | Oc1c(C(Nc2nc3ccccc3s2)c2ccco2)ccc2cccnc12 (stereo unspecified) | 0.65
88 | Clc1cc(Br)ccc1OCCCNCc1ccccc1 | 22.8
89 | CN(Cc1ccccc1)CC(O)COc1ccc(CNCc2ccc(Cl)s2)cc1 (stereo unspecified) | 33.4
90 | Cc1ccc(C(=O)N/N=C/c2ccc([N+](=O)[O-])s2)cc1 | 12.3
91 | CCCC(=O)NC(c1ccc(C)cc1)c1ccc2cccnc2c1O (stereo unspecified) | 0.46
92 | OCCNCc1c(OCc2ccc(Cl)cc2)ccc2ccccc12 | 7.52
93 | CCn1c(N)[n+](CC(=O)Nc2ccc(SC(F)F)cc2)c2ccccc21 | 13.3
94 | Nc1cc2nsnc2cc1Br | 7.44
95 | CCCCC(CC)CN=C(N)NC(N)=NCCCCCCN=C(N)NC(N)=NCC(CC)CCCC (stereo unspecified) | 1.9
96 | NC1=NC[C@H](Cc2ccc(O)cc2)N1CCC12CC3CC(CC(C3)C1)C2 | 10.6

Row | SMILES | EC50 [µM]
97 | Cc1cc(C(=O)N/N=C/c2cc(Br)cc(Br)c2OC(=O)c2ccccc2)n[nH]1 | 7.53
98 | C#CCOc1ccc(/C=C2\SC(=S)N(Cc3cccnc3)C2=O)cc1 | 5.67
99 | COC(=O)c1ccc(Nc2cc(C)nc3ccccc23)cc1 | 6.32
100 | Cc1ccc(C(=O)O)cc1N=Cc1cc(Br)cc(Br)c1O | 37.2
101 | O=[N+]([O-])c1ccc(O)c2ncccc12 | 8.31
102 | Cc1ccc(C(C[N+](=O)[O-])c2c(-c3ccccc3O)[nH][nH]c2=O)cc1 (stereo unspecified) | 27.7
103 | Cc1ccc(-c2csc(NC(=O)C[n+]3cc(-c4ccc(C)cc4)n4c3CCC4)n2)cc1 | 8.54
104 | COc1ccc(OC)c(C2C=C(C34CC5CC(CC(C5)C3)C4)NC(=S)N2)c1 (stereo unspecified) | 49.8
105 | Oc1c(I)cc(Cl)c2cccnc12 | 14.4
106 | C=CCNc1ncnc2c1[nH]c1ccccc12 | 46
107 | Oc1cc(Cl)ccc1Oc1ccc(Cl)cc1Cl | 33.9
108 | Oc1c(CN2CCN(c3ccc(F)cc3)CC2)cc(Cl)c2cccnc12 | 6.36
109 | CCn1cc(C(=O)O)c(=O)c2cc(F)c(N3CCN(C(=S)NC(=O)c4c(OC)cccc4OC)CC3)cc21 | 43.5
110 | CCc1ccc(S(=O)(=O)/N=C2/C=C(Sc3ncn[nH]3)C(=O)c3ccccc32)cc1 | 4.28
111 | Cc1cc(C)nc(/N=C(\N)Nc2ccc(SC(F)F)cc2)n1 | 13.1
112 | CCCCCc1ccc(OCCOCCn2c[n+](C)c3ccccc32)c(CCCCC)c1 | 1.35
113 | CCn1c2ccccc2c2cc(/C=N/NC(=O)c3ccccc3)ccc21 | 4.12
114 | COc1ccc(Nc2nnc(SCc3cn4c(C)cccc4n3)s2)cc1 | 9.34
115 | c1csc(C2Nc3cccc4cccc(c34)N2)c1 | 48.8
116 | CN(C)c1ccc(/C=C/c2ccc3c4ccccc4ccc3[n+]2-c2ccccc2)cc1 | 0.26

— PubChem BioAssay AID2253 (Southern Research Specialized Biocontainment Screening …, 2010)
